Where two headings read alike, the source gives them in different places.
Experiment: Pharmacokinetics in women (Example 23)
Type: in vivo
Details: composition with 400 mg/ml MPA; for Cmax / half-life / Tmax / concentration at 28 day / concentration at 91 day / concentration at 182 day: female, human, in vivo
Experimental: 12 women were sequentially administered medroxyprogesterone acetate. PK was evaluated for at least 182 days. The composition tested was an embodiment of the disclosure and included 400 mg/ml MPA,

AUC0-28, Mean (N 6): 9.84 ng·days/mL
AUC0-28, Median (N 6): 9.31 ng·days/mL
AUC0-28, Min-Max (N 6): 7.83 to 14.52 ng·days/mL
AUC0-91, Mean (N 6): 34.52 ng·days/mL
AUC0-91, Median (N 6): 34.87 ng·days/mL
AUC0-91, Min-Max (N 6): 23.41 to 44.06 ng·days/mL
AUC0-182, Mean (N 6): 60.21 ng·days/mL
AUC0-182, Median (N 6): 60.28 ng·days/mL
AUC0-182, Min-Max (N 6): 38.62 to 84.88 ng·days/mL
Cmax (N 6, read-out: Cmax, Mean): 0.53 ng/mL
Cmax (N 6, read-out: Cmax, Median): 0.55 ng/mL
Cmax (N 6, read-out: Cmax, Min-Max): 0.42 to 0.69 ng/mL
half-life (N 6, read-out: Half-life, Mean (converted)): 99.4 days
half-life (N 6, read-out: Half-life, Median (converted)): 104 days
half-life (N 6, read-out: Half-life, Min-Max): 22.9 to 166 days
Tmax (N 6, read-out: Tmax, Mean (converted)): 17.4 days
Tmax (N 6, read-out: Tmax, Median (converted)): 9.49 days
concentration at 28 day (day 28, N 6, read-out: C28, Mean): 0.36 ng/mL
concentration at 28 day (day 28, N 6, read-out: C28, Median): 0.36 ng/mL
concentration at 28 day (day 28, N 6, read-out: C28, Min-Max): 0.03 to 0.5 ng/mL
concentration at 91 day (day 91, N 6, read-out: C91, Mean): 0.41 ng/mL
concentration at 91 day (day 91, N 6, read-out: C91, Median): 0.41 ng/mL
concentration at 91 day (day 91, N 6, read-out: C91, Min-Max): 0.26 to 0.63 ng/mL
concentration at 182 day (day 182, N 6, read-out: C182, Mean): 0.22 ng/mL
concentration at 182 day (day 182, N 6, read-out: C182, Median): 0.22 ng/mL
concentration at 182 day (day 182, N 6, read-out: C182, Min-Max): 0.14 to 0.34 ng/mL
Compound: CC(=O)O[C@]1(C(C)=O)CC[C@H]2[C@@H]3C[C@H](C)C4=CC(=O)CC[C@]4(C)[C@H]3CC[C@@]21C [medroxyprogesterone acetate]

Source: patent publication US11752095B2, “Medroxyprogesterone acetate injectable compositions and methods of use” (Family Health International, priority 2018, dated 2023)
